As usually defined, the Ki is a dissociation constant, usually derived from enzyme kinetics or from competition with a known ligand. By IC50 is commonly meant the midpoint of a concentration-inhibition curve.

The structures appear in SMILES notation. Structures can show the parent of a compound that is named as a salt.

The target of test [1] is rat CD73. The note with it: cited from earlier work.
Another test has as its target T1, CD73 (Homo sapiens, UniProt P21589, K145S/K147S/K478S/N311D/N333D/N403D/N53D/T376A).
T1 construct: His6 (C); made in house
T1 sequence (P21589 27-549 N53D/K145S/K147S/N311D/N333D/T376A/N403D/K478S limits assumed): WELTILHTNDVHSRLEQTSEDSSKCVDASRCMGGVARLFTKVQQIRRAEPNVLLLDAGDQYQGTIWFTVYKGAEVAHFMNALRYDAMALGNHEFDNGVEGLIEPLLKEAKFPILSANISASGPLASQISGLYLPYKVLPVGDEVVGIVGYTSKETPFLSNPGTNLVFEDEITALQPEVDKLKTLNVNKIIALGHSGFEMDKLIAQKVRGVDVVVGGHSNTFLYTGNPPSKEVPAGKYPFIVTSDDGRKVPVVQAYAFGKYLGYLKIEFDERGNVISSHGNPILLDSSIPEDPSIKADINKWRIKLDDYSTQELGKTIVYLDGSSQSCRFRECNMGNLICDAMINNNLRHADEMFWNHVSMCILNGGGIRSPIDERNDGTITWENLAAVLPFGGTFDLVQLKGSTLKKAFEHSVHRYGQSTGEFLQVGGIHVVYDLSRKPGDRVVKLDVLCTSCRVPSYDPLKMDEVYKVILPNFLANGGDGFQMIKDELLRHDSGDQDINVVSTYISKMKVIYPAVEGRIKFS
Description: CD73 inhibition, malachite green assay. The format is biochemical. On the procedure: In this study, enzyme activity and inhibition data was characterised using a modified malachite green assay. Each assay consisted of reaction buffer A (50 mM Tris–HCl pH 7.5, 100 mM NaCl, 1 mM MgCl2) to which the appropriate substrate and/or inhibitors (see Table S1) were added. Dissolved compounds were immediately used for the inhibition assays. The reactions were generally initiated by the addition of protein. The protein concentrations, substrates and inhibitors used for the various experiments are detailed below. In all experiments, reactions were monitored over a 10-min period during which samples were taken at regular intervals. At each desired time point, a malachite green/molybdate (1:1) solution was added to the sample, which simultaneously terminated the assay and also allowed the detection of the produced phosphate ions. These reaction mixtures were incubated at 25 °C for 25 min, followed by measurement of the absorbance at 620 nm. A standard curve (0–50 μM orthophosphate) was performed prior to each assay and was used to calculate the phosphate concentration. All measurements were carried out in triplicate.
To study the inhibition kinetics of CD73 against a panel of commercially available nucleotide-diphosphate analogues (AMPCP, GMPCP, dUMPCP and CMPCP; see Table S1), their IC50 values were determined. In these tests, CD73 protein (1.25 ng) was incubated in reaction buffer A containing various inhibitor concentrations (0.015, 0.031, 0.061, 0.12, 0.24, 0.49, 0.98, 1.95, 3.91, 7.81, 15.62, 31.25, 62.5, 125, 250 and 500 μM). […] Dose–response curves were plotted in GraphPad Prism (GraphPad Prism Software, La Jolla, CA, USA), and the inflection point of each curve was used to determine the IC50 value of each inhibitor. The IC50 values were then used to calculate the Ki value of each inhibitor using the Cheng-Prusoff equation [51].

Test [2] relates to rat CD73. Description: Literature inhibition of rat CD73. The format is biochemical. As to conditions: rat CD73, from literature Ki values.

With `Nc1ccn([C@@H]2O[C@H](COP(=O)(O)CP(=O)(O)O)[C@@H](O)[C@H]2O)c(=O)n1` [CMPCP, Cytidine-5'-[(α,β)-methyleno]diphosphate, Sodium salt], the Ki was 898 ± 63 nM at rat CD73 [1] and 304 ± 5.8 nM at CD73 (calculated from IC50 with the Cheng-Prusoff equation, human deglycosylated CD73 construct, read-out: Ki). Further, the “ratio Ki (CMPCP)/Ki (AMPCP)” value on CD73 (human CD73 construct of this work) came out at 5.1; with rat CD73 [2], 4.6. In addition, at CD73 (read-out: IC50), the IC50 stood at 3200 ± 20 nM.

The values above are taken from publication PMC8677862, “Substrate binding modes of purine and pyrimidine nucleotides to human ecto-5′-nucleotidase (CD73) and inhibition by their bisphosphonic acid derivatives” (Purinergic Signalling, 2021).
